For 5 molecules, IC50 results are on record in US7074779B2, “Estrieno[3,2-b]/[3,4-c]pyrrole derivatives useful as modulators of the estrogen receptors” (Ortho-McNeil Pharmaceutical, Inc., priority 2003, dated 2006).

One may read the pIC50 as the IC50 on a negative log10 scale, so that one unit is a factor of ten.

pIC50: −log10 of the molar value.

T1 sequence (Q92731 whole entry): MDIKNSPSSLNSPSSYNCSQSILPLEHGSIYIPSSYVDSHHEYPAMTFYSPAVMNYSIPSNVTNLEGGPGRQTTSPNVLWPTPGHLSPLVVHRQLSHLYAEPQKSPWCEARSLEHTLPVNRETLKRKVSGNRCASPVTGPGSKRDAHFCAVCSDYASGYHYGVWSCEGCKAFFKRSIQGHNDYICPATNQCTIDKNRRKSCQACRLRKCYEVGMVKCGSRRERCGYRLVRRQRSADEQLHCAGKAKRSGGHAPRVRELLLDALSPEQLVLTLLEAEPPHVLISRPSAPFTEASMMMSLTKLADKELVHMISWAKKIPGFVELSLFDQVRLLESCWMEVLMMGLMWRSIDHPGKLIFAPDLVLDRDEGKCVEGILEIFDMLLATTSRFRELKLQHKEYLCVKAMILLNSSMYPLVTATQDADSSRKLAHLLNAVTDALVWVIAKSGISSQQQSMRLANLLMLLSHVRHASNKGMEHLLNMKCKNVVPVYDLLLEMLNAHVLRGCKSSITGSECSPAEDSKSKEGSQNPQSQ

The assay addresses T1, human estrogen receptor β (Homo sapiens, UniProt Q92731).
T1 construct: purchased Panvera
Nature of the assay: Estrogen Receptor β Fluorescence Polarization Assay. As to conditions: displacement of Fluormone ES2; read-out: ERβ Binding IC50. From the text: This assay monitors binding of a fluorescent analog of estrogen (Fluormone ES2, Panvera) to the estrogen receptor. Plates were read in a fluorometer that can be set to polarization mode. A decrease in […] relative to vehicle control is an indication of binding of a compound to the receptor. It is crucial to avoid introduction of air bubbles into the reaction in each well of the 96 well plate throughout this procedure. (Bubbles on the surface of the reaction disrupt light flow, affecting the polarization reading.) However, it is also crucial to effectively mix the reaction components upon addition to the well. On ice, a 2× standard mixture of Assay Buffer (Panvera), 10 nM DTT and 40 nM ES2 was prepared. On ice, a 2× reaction mixture of Assay Buffer (Panvera), and 20 nM human estrogen receptor β (hER-β, Panvera) and 40 nM ES2 was also prepared. Dilutions-of test compound were prepared in 30% (v/v) dimethyl sulfoxide/50 mM HEPES, pH 7.5. At this point, the dilutions were 40× the final required concentration. The standard mixture at 50 μL was then added to each well. The reaction mixture at 48 μL was added to all wells. The compound dilution at 2.5 μL was added to the appropriate wells. The reaction mixtures were mixed using a manual pipette, a roll of aluminum foil adhesive cover was placed on the plate and the plate incubated at room temperature for 1 hour. Each well on the plate was then read in an LjL Analyst with an excitation wavelength of […] and an emission wavelength of 538.
Regarding `C[C@]12CCC3c4cc5cc[nH]c5cc4CCC3C1CC[C@@H]2OC(=O)CCC(=O)O` (some centres unmarked) [Compound 13], the pIC50 is 6.21.

As to `C[C@]12CCC3c4cc5cc[nH]c5cc4CCC3C1CCC2=O` (some centres unmarked) [Compound 3], the pIC50 was below 5.00. `C[C@]12CCC3c4ccc5[nH]ccc5c4CCC3C1CC[C@@H]2O` (some centres unmarked) [Compound 6]: the pIC50 was 7.04.

Take `C[C@]12CCC3c4ccc5[nH]ccc5c4CCC3C1CCC2=O` (some centres unmarked) [Compound 4]: the pIC50 was 6.21. As for `C[C@]12CCC3c4cc5cc[nH]c5cc4CCC3C1CC[C@@H]2O` (some centres unmarked) [Compound 8], the figure is 6.82.
